{"source": "the SangsterLogP compilation", "key": {"[1]": {"assay": "method code SF-HPLC, from DOI: 10.1016/0005-2728(88)90027-8, PMID: 3196713", "conditions": "pH 2.2"}}}
{"smiles": "O=C(Nc1ccc(F)cc1F)c1cc(Br)cc(Br)c1O", "values": [{"measurement": "logP", "result": 4.99}]}
{"smiles": "O=C(Nc1ccc(Cl)cc1Cl)c1ccccc1O", "values": [{"measurement": "logP", "result": 5.49}]}
{"smiles": "O=C(Nc1ccc(Cl)cc1)c1ccccc1O", "values": [{"measurement": "logP", "result": 4.29}]}
{"smiles": "Cc1cc(Br)ccc1NC(=O)c1cc(F)ccc1O", "values": [{"measurement": "logP", "result": 5.15}]}
{"smiles": "O=C(Nc1ccccc1[N+](=O)[O-])c1ccccc1O", "values": [{"measurement": "logP", "result": 2.87}]}
{"smiles": "O=C(Nc1ccc(Cl)cc1[N+](=O)[O-])c1ccccc1O", "values": [{"measurement": "logP", "result": 4.02}]}
{"smiles": "O=C(Nc1ccc(Cl)cc1[N+](=O)[O-])c1cc(Cl)cc(Cl)c1O", "values": [{"measurement": "logP", "result": 5.08}]}
{"smiles": "Cc1ccccc1NC(=O)c1cc(Cl)ccc1O", "values": [{"measurement": "logD", "setting": "[1]", "result": 4.21}]}
{"smiles": "O=C(Nc1ccc(Cl)cc1)c1cc(Br)ccc1O", "values": [{"measurement": "logP", "result": 5.02}]}
{"smiles": "Cc1cc(Cl)ccc1NC(=O)c1cc(F)ccc1O", "values": [{"measurement": "logP", "result": 4.89}]}
{"smiles": "O=C(Nc1ccccc1)c1cc(Cl)cc(Cl)c1O", "values": [{"measurement": "logP", "result": 4.01}]}
{"smiles": "O=C(Nc1ccc(Cl)cc1)c1cc(Cl)cc(Cl)c1O", "values": [{"measurement": "logP", "result": 5.15}]}
{"smiles": "O=C(Nc1ccccc1Cl)c1ccccc1O", "values": [{"measurement": "logD", "setting": "[1]", "result": 4.35}]}
{"smiles": "O=C(Nc1ccccc1)c1cc(Cl)ccc1O", "values": [{"measurement": "logP", "result": 3.98}]}
{"smiles": "O=C(Nc1ccc(Cl)cc1[N+](=O)[O-])c1cc(Br)cc(Br)c1O", "values": [{"measurement": "logP", "result": 5.05}]}
{"smiles": "O=C(Nc1ccc(F)cc1F)c1cc(Cl)cc(Cl)c1O", "values": [{"measurement": "logP", "result": 4.55}]}
{"smiles": "O=C(Nc1ccc(Br)cc1)c1ccccc1O", "values": [{"measurement": "logP", "result": 4.51}]}
{"smiles": "Cc1cc(Cl)ccc1NC(=O)c1ccccc1O", "values": [{"measurement": "logP", "result": 5.18}]}
{"smiles": "Cc1cc([N+](=O)[O-])ccc1NC(=O)c1cc(Cl)cc(Cl)c1O", "values": [{"measurement": "logP", "result": 4.51}]}
{"smiles": "O=C(Nc1ccc(F)cc1)c1cc(Cl)cc(Cl)c1O", "values": [{"measurement": "logD", "setting": "[1]", "result": 4.76}]}
